Results on 6 molecules are retold here after patent US9394318B2, “Crystal polymorph of magnesium glycinate dihydrate and process for its preparation” (Cypress Pharmaceutical, Inc., priority 2012, dated 2016).

The conditions of experiment [1]: as described in the '012 application, cited from earlier work.
For experiment [2] the following is noted: 4.0 mL PBS + 20 mg binder, mixed 1 h at room temperature; hypothetical results; dihydrate. On the procedure: Exemplary stock solutions suitable for phosphate-binding assays include the following: phosphate-binding solution (“PBS”) containing 10 mM KH2PO4, 30 mM Na2CO3, 80 mM NaCl, as described in Rosenbaum et al. Nephrol. Dial. Transplant. 12:961-964 (1997); acetate buffer (“AB”) solution containing 0.1N acetic acid, 0.025N sodium acetate, as described in Lowry & Lopez J. Biol. Chem. 162:421-428 (1946); ammonium molybdate (“AM”) solution containing 1% ammonium molybdate in 0.05N H2SO4, as described in Lowry & Lopez; ascorbic acid (“AA”) solution containing 1% ascorbic acid in H2O, as described in Lowry & Lopez.
In general, the phosphate-binding assays are conducted in 12×75 mm glass tubes. 4.0 mL PBS and 20 mg putative phosphate binder are added to a glass tube and then mixed for 1 h at room temperature. 0.1 mL supernatant is pipetted from this tube to a new test tube. 3.0 mL AB, 0.3 mL AA and 0.3 mL AM solutions are added and O.D. is measured at 700 nm after 10 minutes.
The phosphate binding capacity was calculated as follows (mcg stands for micrograms): ((O.D. of sample×95)/O.D. of standard)×40=(mcg)PO4 left in solution ((3800(mcg)PO4 left)×50)/1000=(mcg)PO4 bound per gram of phosphate binder.
The phosphate binding capacities of samples of magnesium glycinate dihydrate produced by the process of Example 1 are measured. X-ray powder diffraction is conducted on each of the samples to verify that they consist of the polymorph described in Example 2.

“magnesium glycinate [magnesium glycinate salt]”: the “ability to bind phosphate per gram” value in experiment [1] (in vitro phosphate binding assay) is reported as “at least 50 mg phosphate per gram”. As to `O=C1C[NH][Mg]2([OH])([OH])([NH]CC(=O)[O]2)[O]1` [Sample 3, magnesium glycinate dihydrate], the “PO4 binding” value in experiment [2] is listed as 176.2 mg/g.

For the molecule `O=C1C[NH][Mg]2([OH])([OH])([NH]CC(=O)[O]2)[O]1` [Sample 1, magnesium glycinate dihydrate], the “PO4 binding” value in experiment [2] was 175.0 mg/g. Same read-out and setting: the value for `O=C1C[NH][Mg]2([OH])([OH])([NH]CC(=O)[O]2)[O]1` [Sample 2, magnesium glycinate dihydrate] was 177.0 mg/g. For the molecule `O=C1C[NH][Mg]2([OH])([OH])([NH]CC(=O)[O]2)[O]1` [Sample 4, magnesium glycinate dihydrate], the “PO4 binding” value in experiment [2] worked out at 178.1 mg/g. Regarding `[Cl-].[Cl-].[Mg+2]` [magnesium chloride], in experiment [1] (formed from magnesium glycinate and stomach acid (HCl)), the “ability to bind phosphate” value is recorded as “does not have the ability to bind phosphate in appreciable quantities”.
